Where a SMILES comes first, the peptide text is derived from it.
Biological target: T1, PDK1 (Homo sapiens, UniProt O15530)
T1 sequence (O15530 1-556): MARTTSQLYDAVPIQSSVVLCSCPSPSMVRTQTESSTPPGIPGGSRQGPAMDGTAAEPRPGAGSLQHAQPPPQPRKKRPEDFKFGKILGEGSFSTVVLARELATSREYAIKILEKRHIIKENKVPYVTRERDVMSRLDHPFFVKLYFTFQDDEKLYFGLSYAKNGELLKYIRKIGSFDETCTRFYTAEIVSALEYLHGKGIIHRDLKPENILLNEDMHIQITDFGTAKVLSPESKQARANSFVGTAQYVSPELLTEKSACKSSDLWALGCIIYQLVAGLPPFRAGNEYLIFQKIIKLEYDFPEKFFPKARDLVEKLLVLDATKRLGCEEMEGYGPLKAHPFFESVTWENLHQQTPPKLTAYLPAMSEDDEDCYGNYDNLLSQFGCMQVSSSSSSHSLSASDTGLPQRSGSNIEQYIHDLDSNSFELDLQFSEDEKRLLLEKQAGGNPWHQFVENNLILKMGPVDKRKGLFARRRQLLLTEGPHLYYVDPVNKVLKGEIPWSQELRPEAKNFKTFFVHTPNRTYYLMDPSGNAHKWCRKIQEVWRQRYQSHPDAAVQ
Assay: PDK1 activity towards synthetic peptide substrates T308tide or PDKtide
Assay type: biochemical
Set-up: Full length PDK1 (residues 1-556); made in house; host or cells: 293 cells
Details: substrate T308tide
Description: FIG. 12. PDK1 is activated and stabilised through its interaction with PIFtide. (A) GST-PDK1 activity was measured in the presence of increasing concentrations of wild type (wt) PIFtide (closed circles) or a mutant D978A PIFtide (open circles) using the synthetic peptide substrate termed T308tide, as described in Material and Methods. The data was fitted to a hyperbola using the Kaleidagraph™ software. The connection needed to obtain 50% activation of PDK1 was […] for wt-PIFtide and 1.1 μM for D978A-PIFtide. The assay shown was performed in triplicate and there was less than 5% difference between each assay. Similar results were obtained in 2 further experiments (B)—The wild type GST-PDK1 (circles) or the L155D mutant of GST-PDK1 (squares) was incubated in the presence (closed symbols) or absence (open symbols) of […] PIFtife and then for 2 min at the indicated temperatures, rapidly brought to 0° C. (see Materials and Methods), and 2 min later assayed at 30° C. for 10 min using T308tide as substrate. The activity of PDK1 obtained by incubation at 30° C. was taken as 100%. The assay shown was performed in duplicate with similar results obtained in two separate experiments.
FIG. 14. […] (A) His-PDK1 was assayed for activity using as substrate the indicated concentration of either PDKtide (open triangles) or T308tide (open circles). […]
PDK1's ability to phosphorylate Thr308 of PKBα was measured using a mutant of GST-PKBα in which Ser473 was mutated to Asp (GST-473D PKBα) in the presence of phospholipid vesicles containing sn-1-stearoyl-2-arachidonoyl-D-PtdIns (3, 4, 5)P3 [13]. […] 35 μl of the resultant mixture was spotted into P81 phosphocellulose paper (2×2 cm) and the papers washed and analysed as described previously for assays of MAP kinase. […] Control assays were carried out in parallel in which either PDK1, or peptide substrate were omitted; these values were always less than 5% of the activity measured in the presence of these reagents. […]

less effective at inducing PDK1 activation than wild type PIFtide | SMILES | EC50 (GST-PDK1, read-out: concentration required for half-maximal (50%) activation of PDK1) | increase in PDK1 activity towards T308tide
8 fold | CC[C@H](C)[C@H](NC(=O)[C@H](CCCNC(=N)N)NC(=O)[C@@H]1CCCN1C(=O)[C@H](CCC(=O)O)NC(=O)[C@@H](N)CCCNC(=N)N)C(=O)N[C@@H](CC(C)C)C(=O)N[C@@H](CO)C(=O)N[C@@H](CCC(=O)O)C(=O)N[C@@H](CCC(=O)O)C(=O)N[C@@H](CCC(=O)O)C(=O)N[C@@H](CCC(N)=O)C(=O)N[C@@H](CCC(=O)O)C(=O)N[C@@H](CCSC)C(=O)N[C@@H](Cc1ccccc1)C(=O)N[C@@H](CCCNC(=N)N)C(=O)N[C@@H](CC(=O)O)C(=O)N[C@@H](Cc1ccccc1)C(=O)N[C@@H](C)C(=O)N[C@@H](Cc1ccc(O)cc1)C(=O)N[C@@H](CC(C)C)C(=O)N[C@@H](C)C(=O)N[C@@H](CC(=O)O)C(=O)N[C@@H](Cc1c[nH]c2ccccc12)C(=O)N[C@@H](CS)C(=O)O [D978A-PIFtide] (H-REPRILSEEEQEMFRDFAYLADWC-OH; N-terminus and C-terminus assumed) | – | –
– | CC[C@H](C)[C@H](NC(=O)[C@H](Cc1ccc(O)cc1)NC(=O)[C@H](CC(=O)O)NC(=O)[C@H](Cc1ccccc1)NC(=O)[C@H](CC(=O)O)NC(=O)[C@H](CCCNC(=N)N)NC(=O)[C@H](Cc1ccccc1)NC(=O)[C@H](CCSC)NC(=O)[C@H](CCC(=O)O)NC(=O)[C@H](CCC(N)=O)NC(=O)[C@H](CCC(=O)O)NC(=O)[C@H](CCC(=O)O)NC(=O)[C@H](CCC(=O)O)NC(=O)[C@H](CO)NC(=O)[C@H](CC(C)C)NC(=O)[C@@H](NC(=O)[C@H](CCCNC(=N)N)NC(=O)[C@@H]1CCCN1C(=O)[C@H](CCC(=O)O)NC(=O)[C@@H](N)CCCNC(=N)N)[C@@H](C)CC)C(=O)N[C@@H](C)C(=O)N[C@@H](CC(=O)O)C(=O)N[C@@H](Cc1c[nH]c2ccccc12)C(=O)N[C@@H](CS)C(=O)O [PIFtide] (H-REPRILSEEEQEMFRDFDYIADWC-OH; N-terminus and C-terminus assumed) | 140 nM | up to 4 fold
